According to patent US10959998B2, “Pharmaceutical use and pharmaceutical composition of pyrroloquinoline quinine, its derivatives and/or its salts” (priority 2015, dated 2021):

Legend:
[1] = system: endometrial stromal cells; assay: Transwell/matrigel invasion assay; format: cell-based, human; conditions: 48 h
Description: 500 μL culture medium containing 10% FBS was added into each wells in a 24-well plate. Transwell chambers were treated with 0.3 mg/ml FN diluted by serum free 1640 culture medium (BD company). The cells were seeded (5×10^4 cells/chamber) in the transwell up-chamber, in which 100 μL media were kept finally. The cells were cultured in an incubator at 37° C. in an air atmosphere containing 5% CO2 for the specified time. The chambers were taken out, stained with 0.1% crystal violet, and were photographed. Crystal violet on the membrane was dissolved with 300 μL of 33% Glacial acetic acid. The optical absorption was measured at wavelength 573 nm. On the ice, 100 μL matrigel was taken in with pre-chilled micropipette, transferred into 300 ul pre-chilled serum free medium. The mixture solution was thoroughly mixed to achieve uniform. 25 ul of the previous diluted matrigel was put into transwell up-chamber, covering the whole carbon ester membrane. The transwell was incubated at 37° C., 30 min for Matrigel gelling. The rest treatment was the same as that in Transwell assay.

[2] = system: endometrial stromal cells; assay: Apoptosis by Annexin V-FITC/PI flow cytometry; format: cell-based, human; conditions: regardless of dose, 24 h
Description: Endometrial tissues were surgically isolated from patients with chocolate cyst of ovary, washed 2 to 3 times with PBS supplemented with antibiotics in ultra-clean cabinet, and cut into tiny pieces (about 1 mm^3 in size) with aseptic scissors. The tissues were digested with 1 mg/ml collagenase type I for 30 to 90 min at 37° C., and continually digested with Dnase I (final concentration of 15 U/ml, 2% Dnase I) for another 30 min. The digested tissues were filtered thorough 60-mesh stainless steel filter cell strainer to remove the undigested cell tissues, and were further filtered with 200- or 400-mesh strainer. The filtered solution was centrifuged at 1000 rpm for 5 min. After removing the supernatants, the cells were washed once with culture medium compounded by DMEM/F12 (1:1 v/v) and 10% fetal bovine serum, re-suspended in the culture medium, and seeded in 6-well tissue culture plate or T25 tissue culture flasks with an appropriate density. After 24 hours incubation, the culture medium was changed to remove the non-adherent blood cells, endothelial cells, macrophages and other miscellaneous cells. […] Vimentin which expresses specifically in stromal cells was detected by immuno-fluorescence to measure the cell purity. […] Cell cycle was determined with flow cytometry. […] Cell apotosis was determined by flow cytometry.

`O=C(O)c1cc(C(=O)O)c2c(n1)C(=O)C(=O)c1cc(C(=O)O)[nH]c1-2` [PQQ, pyrroloquinoline quinone] was tested, and the “inhibitory effect on cell invasion compared to the control group” value ([1]; 300 nM PQQ, statistically meaningful) was “definite inhibitory effect”, the “reduction of invasion ability of endometrial stromal cells” value ([1]; 3 μM PQQ) was 35% and the “inhibitory effect on cell invasion compared to the control group” value ([1]; PQQ) was “not obvious”. For the same molecule, the “apoptosis or necrosis compared to the control” value [2] was “No endometrial stromal cells apoptosis or necrosis”.
